Data: patent publication US8791132B2, “Compounds and methods for treatment of hypertension” (Medivation Technologies, Inc., priority 2011, dated 2014)
Like-named read-outs stand apart in the source and are kept apart here.

Columns and labels:
[1] = target: T1, human recombinant adrenergic α2A receptor (Homo sapiens, UniProt P08913); assay: Radioligand binding, adrenergic α2A ([3H]MK-912); settings: [3H]MK-912; for Percentage inhibition of ligand binding, Adrenergic α2A: 0.1 µM
T1 construct: expressed in transfected cells; host or cells: insect Sf9 cells
T1 sequence (P08913 1-465): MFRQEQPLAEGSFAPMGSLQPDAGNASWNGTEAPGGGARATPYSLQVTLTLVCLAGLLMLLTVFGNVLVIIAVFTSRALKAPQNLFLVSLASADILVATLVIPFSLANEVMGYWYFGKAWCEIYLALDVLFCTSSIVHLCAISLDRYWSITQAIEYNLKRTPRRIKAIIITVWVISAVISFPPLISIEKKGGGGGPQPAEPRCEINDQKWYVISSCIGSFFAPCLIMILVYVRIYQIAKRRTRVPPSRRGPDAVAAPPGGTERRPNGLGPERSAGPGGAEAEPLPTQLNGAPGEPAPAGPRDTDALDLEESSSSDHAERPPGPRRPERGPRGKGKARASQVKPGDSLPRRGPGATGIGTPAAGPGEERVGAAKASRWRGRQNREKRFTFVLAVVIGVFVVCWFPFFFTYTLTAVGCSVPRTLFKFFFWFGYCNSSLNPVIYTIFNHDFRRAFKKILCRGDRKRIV
Outline: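 Displacement of 1 nM [3H]MK-912 from receptor produced in insect Sf9 cells was measured after 60 min at 25 °C. Readout: percent inhibition of specific binding.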

[2] = target: T2, rat adrenergic α1B receptor (Rattus norvegicus, UniProt P15823); assay: Radioligand binding, adrenergic α1B ([3H]Prazosin); settings: [3H]Prazosin; for Percentage inhibition of ligand binding, Adrenergic α1B: 0.1 µM
T2 construct: rat adrenergic α1B receptor obtained from Wistar Rat liver; from tissue; host or cells: Wistar rat liver
T2 sequence (P15823 1-515): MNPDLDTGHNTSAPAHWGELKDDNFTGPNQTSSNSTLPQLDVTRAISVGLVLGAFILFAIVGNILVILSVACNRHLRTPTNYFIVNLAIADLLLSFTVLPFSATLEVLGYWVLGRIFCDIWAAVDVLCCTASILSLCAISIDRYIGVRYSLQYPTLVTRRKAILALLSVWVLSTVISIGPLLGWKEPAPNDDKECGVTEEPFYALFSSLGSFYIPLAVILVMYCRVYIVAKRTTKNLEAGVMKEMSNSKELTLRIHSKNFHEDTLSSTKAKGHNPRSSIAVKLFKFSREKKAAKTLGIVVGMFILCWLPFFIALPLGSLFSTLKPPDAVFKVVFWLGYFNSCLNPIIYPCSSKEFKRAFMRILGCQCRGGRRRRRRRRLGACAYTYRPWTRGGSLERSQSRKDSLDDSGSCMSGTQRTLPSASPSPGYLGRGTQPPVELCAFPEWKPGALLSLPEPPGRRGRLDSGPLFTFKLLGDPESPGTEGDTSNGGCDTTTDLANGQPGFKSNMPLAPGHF
Outline: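 Specific binding, taken as total minus that remaining with 10 μM phentolamine, is measured after filtration and counting. Rat liver receptor preparation and 0.25 nM [3H]prazosin are incubated with compound in 50 mM Tris-HCl (pH 7.4, 0.5 mM EDTA) at 25° C for 60 min. Activity is reported as percent inhibition.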

[3] = target: T3, human recombinant adrenergic α2B receptor (Homo sapiens, UniProt P18089); assay: Radioligand binding, adrenergic α2B ([3H]Rauwolscine); settings: [3H]Rauwolscine; for Percentage inhibition of ligand binding, Adrenergic α2B: 0.03 µM
T3 construct: expressed in transfected cells; host or cells: CHO-K1
T3 sequence (P18089 1-450): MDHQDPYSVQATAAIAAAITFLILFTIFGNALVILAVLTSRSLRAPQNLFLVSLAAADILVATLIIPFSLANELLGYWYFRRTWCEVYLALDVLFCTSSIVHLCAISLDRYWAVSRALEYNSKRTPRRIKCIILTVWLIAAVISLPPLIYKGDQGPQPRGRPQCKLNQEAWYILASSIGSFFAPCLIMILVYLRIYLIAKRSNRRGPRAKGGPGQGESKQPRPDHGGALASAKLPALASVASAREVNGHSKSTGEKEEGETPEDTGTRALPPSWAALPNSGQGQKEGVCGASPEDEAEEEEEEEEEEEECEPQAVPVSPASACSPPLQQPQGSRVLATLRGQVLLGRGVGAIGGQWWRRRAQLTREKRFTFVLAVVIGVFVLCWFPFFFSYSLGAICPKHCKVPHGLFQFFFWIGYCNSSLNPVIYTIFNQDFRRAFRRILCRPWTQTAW
Outline: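 Receptor expressed in CHO-K1 cells, assayed in 50 mM Tris-HCl pH 7.4 with 12.5 mM MgCl2, 1 mM EDTA and 0.2% BSA. Compounds were incubated with 2.5 nM [3H]Rauwolscine for 60 min at 25° C; 10 μM Prazosin defined non-specific binding. Filter counting gave percent inhibition of specific binding.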

[4] = compound at 0.1 μM, repeat assays, each datapoint shown, read-out: Percentage inhibition of ligand binding, Adrenergic α2A
[5] = compound at 0.1 μM, repeat assays, each datapoint shown, read-out: Percentage inhibition of ligand binding, Adrenergic α1B
[6] = compound at 0.03 μM, repeat assays, each datapoint shown, read-out: Percentage inhibition of ligand binding, Adrenergic α2B
[7] = compound at 0.1 μM, repeat assays, each datapoint shown
[8] = compound at 0.03 μM, repeat assays, each datapoint shown

| SMILES | inhibition at 0.1 µM [1, 4] [%] | inhibition at 0.1 µM [2, 5] [%] | inhibition at 0.03 µM [3, 6] [%] | Percentage inhibition of ligand binding, Adrenergic α2A [1, 7] [%] | Percentage inhibition of ligand binding, Adrenergic α2B [3, 8] [%] | further results |
| --- | --- | --- | --- | --- | --- | --- |
| Cc1ccc2c(c1)c1c(n2CC(N=[N+]=[N-])c2ccc(F)cc2)CCN2CCCC12 (stereo not drawn) [V-23, 7-(2-azido-2-(4-fluorophenyl)ethyl)-10-methyl-2,3,5,6,7,11c-hexahydro-1H-indolizino[7,8-b]indole] |  |  |  |  |  | inhibition at 0.1 µM ([1]; read-out: Percentage inhibition of ligand binding, Adrenergic α2A (0.1 μM), compound at 0.1 μM, repeat datapoints each shown): 109%; inhibition at 0.1 µM ([2]; read-out: Percentage inhibition of ligand binding, Adrenergic α1B (0.1 μM), compound at 0.1 μM, repeat datapoints each shown): 94%; inhibition at 0.03 µM ([3]; read-out: Percentage inhibition of ligand binding, Adrenergic α2B (0.03 μM), compound at 0.03 μM, repeat datapoints each shown): 105% |
| CN1CCc2c(c3cc(C(F)(F)F)ccc3n2CC(O)c2ccncc2)C1 (stereo not drawn) [compound 6, 2-(2-methyl-8-(trifluoromethyl)-3,4-dihydro-1H-pyrido[4,3-b]indol-5(2H)-yl)-1-(pyridin-4-yl)ethanol] | 2 | 8 | 62 |  |  |  |
| Cc1ccc2c(c1)c1c(n2CC(O)c2cccnc2)CCNC1 (stereo not drawn) [compound 9, 2-(8-methyl-1,2,3,4-tetrahydro-pyrido[4,3-b]indol-5-yl)-1-pyridin-3-yl-ethanol] |  |  |  | −4 | 36 | Percentage inhibition of ligand binding, Adrenergic α1B [2, 7]: 5% |
| Cc1ccc2c(c1)c1c(n2CC(O)c2ccncc2)CCN(C)CC1 (stereo not drawn) [compound 13, 2-(3,9-dimethyl-2,3,4,5-tetrahydroazepino[4,5-b]indol-6(1H)-yl)-1-(pyridin-4-yl)ethanol] |  | 83 |  | 18 | 92 |  |
| CN1CCc2c(n(CC(O)c3ccncc3)c3ccc(Cl)cc23)CC1 (stereo not drawn) [compound 15, 2-(9-chloro-3-methyl-2,3,4,5-tetrahydroazepino[4,5-b]indol-6(1H)-yl)-1-(pyridin-4-yl)ethanol] |  | 93 |  | 19 | 93 |  |
| CN1Cc2c(n(CC(O)c3ccncc3)c3ncccc23)C(C)(C)C1 (stereo not drawn) [compound 17, 1-pyridin-4-yl-2-(6,8,8-trimethyl-5,6,7,8-tetrahydro-1,6,9-triaza-fluoren-9-yl)-ethanol] |  | 18 | 37 | 19 |  |  |
| Cc1ccc2c(c1)c1c(n2CC(O)c2cccnc2)CN(C)CC1 (stereo not drawn) [compound 43, 2-(2,6-dimethyl-1,2,3,4-tetrahydro-β-carbolin-9-yl)-1-pyridin-3-yl-ethanol] |  |  |  | −1 | 24 | Percentage inhibition of ligand binding, Adrenergic α1B [2, 7]: 21% |
| COc1cccc2c3c(n(CC(O)c4ccncc4)c12)CCN(C)C3 (stereo not drawn) [compound 44, 2-(6-methoxy-2-methyl-3,4-dihydro-1H-pyrido[4,3-b]indol-5(2H)-yl)-1-(pyridin-4-yl)ethanol] |  |  |  | −1 | 56 | Percentage inhibition of ligand binding, Adrenergic α1B [2, 7]: −3% |
| COc1ccc(C(O)Cn2c3c(c4cc(C)ccc42)CN(C)CC3)cn1 (stereo not drawn) [compound 51, 2-(2,8-dimethyl-1,2,3,4-tetrahydro-pyrido[4,3-b]indol-5-yl)-1-(6-methoxy-pyridin-3-yl)-ethanol] |  |  |  | 20 | 82 | Percentage inhibition of ligand binding, Adrenergic α1B [2, 7]: 43% |
| Cc1cnc2c(c1)c1c(n2CC(O)c2ccncc2)CCN(C)C1 (stereo not drawn) [compound 55, 2-(3,6-dimethyl-5,6,7,8-tetrahydro-1,6,9-triaza-fluoren-9-yl)-1-pyridin-4-yl-ethanol] | 13 |  |  |  | 63 | Percentage inhibition of ligand binding, Adrenergic α1B [2, 7]: 37% |
| Cc1cnc2c(c1)c1c(n2CC(O)c2ccncc2)CCNC1 (stereo not drawn) [compound 58, 2-(3-methyl-5,6,7,8-tetrahydro-1,6,9-triaza-fluoren-9-yl)-1-pyridin-4-yl-ethanol] |  |  |  | −1 | 26 | Percentage inhibition of ligand binding, Adrenergic α1B [2, 7]: 21% |
| Cc1ccc2c(c1)c1c(n2CC(O)c2cccnc2)CCN(C)C1 (stereo not drawn) [compound 62] | 1 | 16 | 76 |  |  |  |
| COc1ccc(C(C)(O)Cn2c3c(c4cc(C)ccc42)CN(C)CC3)cn1 (stereo not drawn) [compound 64, 1-(2,8-dimethyl-1,2,3,4-tetrahydro-pyrido[4,3-b]indol-5-yl)-2-(6-methoxy-pyridin-3-yl)-propan-2-ol] | 12 | 25 | 62 |  |  |  |
| CN1CCc2c(c3ccc(C(F)(F)F)cc3n2CC(O)c2ccncc2)C1 (stereo not drawn) [compound 65, 2-(2-methyl-7-(trifluoromethyl)-3,4-dihydro-1H-pyrido[4,3-b]indol-5(2H)-yl)-1-(pyridin-4-yl)ethanol] | -3 | -13 | 64 |  |  |  |
| COc1ccc(C(O)Cn2c3c(c4cc(C)ccc42)CN(C)CC3)cc1OC (stereo not drawn) [compound 66, 1-(3,4-dimethoxy-phenyl)-2-(2,8-dimethyl-1,2,3,4-tetrahydro-pyrido[4,3-b]indol-5-yl)-ethanol] | 15 | 48 | 69 |  |  |  |
| Cc1ccc2c(c1)c1c(n2CC(O)c2ccc(C(=O)O)cc2)CCN(C)C1 (stereo not drawn) [compound 67, 4-[2-(2,8-dimethyl-1,2,3,4-tetrahydro-pyrido[4,3-b]indol-5-yl)-1-hydroxy-ethyl]-benzoic acid] | -7 | 12 | 17 |  |  |  |
| Cc1ccc2c(c1)c1c(n2CC(=O)c2cc[n+]([O-])cc2)CCN(C)C1 [compound 68] | 1 | 2 | 4 |  |  |  |
| CC(O)c1ccc2c(c1)c1c(n2CC(O)c2ccncc2)CCN(C)C1 (stereo not drawn) [compound 70] | 10 | 8 | 26 |  |  |  |
| Cc1ccc2c(c1)c1c(n2CC(O)c2ccncc2)C(C)(C)CN(C)C1 (stereo not drawn) [compound 71, 1-pyridin-4-yl-2-(2,4,4,8-tetramethyl-1,2,3,4-tetrahydro-pyrido[4,3-b]indol-5-yl)-ethanol] | 11 | 11 | 9 |  |  |  |
| CCOC(=O)N1CCc2c(c3cc(C)ccc3n2CC(O)c2ccncc2)C1 (stereo not drawn) [compound 72, ethyl 3,4-dihydro-5-(2-hydroxy-2-(pyridin-4-yl)ethyl)-8-methyl-1H-pyrido[4,3-b]indole-2(5H)-carboxylate] | -2 | 6 | 12 |  |  |  |
| Cc1ccc2c(c1)c1c(n2CC(O)c2ccncc2)CC2CCC1N2C (stereo not drawn) [compound 73] | 15 | 17 | 61 |  |  |  |
